Values of other authors, collected in US8202545B2, “Nutraceutical for the prevention and treatment of cancers and diseases affecting the liver” (Canthao Corporation, priority 2003, dated 2012).

Experiments:
[1] = system: recurrent and second primary hepatomas; details: treated group vs placebo 49%, P=0.04
chronic hepatitis = chronic hepatitis patients
[2] = latest phase III clinical trial

In the case of `COc1cccc2c1C(=O)c1c(O)c3c(c(O)c1C2=O)C[C@@](O)(C(=O)CO)C[C@@H]3O[C@H]1C[C@H](N)[C@H](O)[C@H](C)O1` [Doxorubicin], the “median survival of patients treated” value (liver cancer; [2]) is listed as 7 months, the response rate (liver cancer; [2]) is listed as 11% and the “patients in whom agent is effective” value (liver cancer; liver cancer patients) is listed as “less than 20%”. For the same molecule, the median survival (liver cancer; liver cancer patients (Leung and Johnson 2001)) was “less than 6 months”.

In the case of `CC(C)=CCC/C(C)=C/CC/C(C)=C/C=C/C(C)=C/C(=O)O` [acyclic retinoid, polyprenoic acid], the “incidence of recurrent or new hepatoma” value [1] is listed as 27%.

In the case of `O=C1O[C@H]([C@@H](O)CO)C(O)=C1O` [ascorbic acid], the “AFP level in cells” value (human hepatoma cell; decreased from 302) is given as 90 and the “cellular growth inhibition as compared to controls” value (human hepatoma cell; human hepatoma cells) is given as “approximately 60%”.

In the case of interferon, the “overall response rate (normalization of liver enzyme levels and reduction of viral load)” value (chronic hepatitis) is listed as “roughly 50%”.
